{"source": "paper PMC8997995", "about": "“Amphiphilic Cell-Penetrating Peptides Containing Natural and Unnatural Amino Acids as Drug Delivery Agents” (Cells, 2022)", "key": {"[1]": {"test_system": "HEK-293 cells", "format": "cell-based, human", "settings": "HEK-293, 25 µM, 24 h incubation, MTS", "protocol": "SK-OV-3, CCRF-CEM, HEK-293, MDA-MB-468, LLC-PK1, and MES-SA were used to determine the cytotoxicity of the synthesized linear and cyclic peptides. About 5000, 10,000, and 50,000 cells were seeded for SK-OV-3, HEK-293, and CCRF-CEM cells, respectively, in 0.1 mL of medium per well of 96-well plates. […]\nAdhesive cells were detached with 0.05% trypsin/EDTA after 15 min. […] The cell viability was measured by utilizing Multi-Mode Microplate Reader (SpectraMax M5 model, Molecular Devices, San Jose, CA, USA) after adding 20 µL of the MTS reagent to each well and incubating for 3 additional hours. […] The percentage of cell viability was calculated using the following equation:(1) =(Average OD values of samples treated with the compound /Average OD values of no treatment samples )∗100"}, "[2]": {"test_system": "MDA-MB-231 cells", "test": "Cellular uptake of F’-siRNA by flow cytometry in MDA-MB-231 cells", "format": "cell-based, human", "settings": "MDA-MB-231, F’-siRNA 36 nM, n = 3"}, "[3]": {"test": "Transmission electron microscopy, self-assembly", "format": "physicochemical", "settings": "TEM, 30 μM, dried on grid overnight, not stained", "protocol": "Transmission electron microscopy (TEM) was done on a LVEM 5D Microscope model (Delong instruments, Brno, Czech Republic) samples were prepared on an Ultrathin Carbon Film on Lacey Carbon Support Film with 400 mesh copper from Ted Pella. Dilute solutions of 30 μM concentration were used for the TEM analysis. Samples were dropped on grids, evaporated overnight, and not stained. They were incubated for approximately 2 h after thawing from a freezer (0 to −18 °C). Samples were air-dried, and images were obtained with a LVEM5 (Delong Instruments, US) 5 keV field emission gun. The camera was Zyla 5.5 Scientific CMOS with specifications of exposure 50–200 [ms], pixel readout 200 MHz—lowest noise, dynamic range 12-bit (low noise), and summing 1."}, "[4]": {"test": "Dynamic light scattering", "format": "physicochemical", "settings": "DLS, 10 µM, 25 °C", "protocol": "The samples were prepared in 10 µM concentration and were incubated for approximately 2 h after thawing from a freezer (0 to −18 °C). Samples were analyzed by dynamic light scattering (DLS) for particle sizes and the polydispersity index (PI). The data were acquired by using a Zetasizer Nano ZS (Malvern, Worcestershire, UK), which has a 0.3 nm to 10 µm particle size range and was equipped with a laser beam (λ = 633 nm; 4 mW) and a scattered light detector positioned at an angle of 173° (noninvasive backscatter) in order to unmask scattered light signals of low intensity originated by the smaller particles. The analytical model was based on protein analysis. The sensitivity of the device is reported to be at 0.1 mg/mL (lysozyme). The refractive index and absorption were set at 1.450 and 0.001 for the material. The refractive index, viscosity, and temperature were set at 1.33, 0.8872, and 25 °C for dispersant. Particle sizes and PI measurements were made in disposable cuvettes (ZEN0040) at 25 °C and variable runs per measurement."}}, "note": "Non-standard residues stand in square brackets, D forms with d. Residues, ends and D or L forms follow the SMILES beside them. Dip = N[C@H](C(=O)O)C(c1ccccc1)c1ccccc1"}
{"smiles": "N=C(N)NCCC[C@@H]1NC(=O)[C@H](C(c2ccccc2)c2ccccc2)NC(=O)[C@H](CCCNC(=N)N)NC(=O)[C@H](C(c2ccccc2)c2ccccc2)NC(=O)[C@H](CCCNC(=N)N)NC(=O)[C@H](C(c2ccccc2)c2ccccc2)NC(=O)[C@H](CCCNC(=N)N)NC(=O)[C@H](C(c2ccccc2)c2ccccc2)NC(=O)[C@H](CCCNC(=N)N)NC(=O)[C@H](C(c2ccccc2)c2ccccc2)NC1=O", "note": "[[DipR]5] (cyclo([Dip]R[Dip]R[Dip]R[Dip]R[Dip]R))", "values": [{"measurement": "reduction of cell proliferation", "setting": "[1]", "result": 56, "unit": "%"}, {"measurement": "increase of cellular uptake of F’-siRNA vs siRNA alone", "setting": "[2]; N/P ratio 10, 24 h", "result": 30, "unit": "fold"}, {"measurement": "increase of cellular uptake of F’-siRNA vs siRNA alone", "setting": "[2]; N/P ratio 20, 24 h", "result": 50, "unit": "fold"}, {"measurement": "morphology of self-assembled structures", "setting": "[3]", "result": "aggregation"}, {"measurement": "size of self-assembled structures", "setting": "[3]", "result": "≤ 30", "unit": "nm"}, {"measurement": "Z average size", "setting": "[4]", "result": 200.6, "unit": "nm"}, {"measurement": "polydispersity index (PI)", "setting": "[4]", "result": 0.359}]}
